Experimental data: patent publication US20120035214A1, “RENIN INHIBITORS” (Merck Canada Inc., priority 2009, published 2012)

Key:
[1] = biological target: T1, recombinant renin in human plasma (Homo sapiens, UniProt P00797); test: Inhibition of renin in human plasma (QFRET, plasma); format: biochemical; conditions: human EDTA plasma with 1 nM recombinant renin added; 37° C., 1 hour
T1 construct: purchased Proteos
T1 sequence (P00797 67-406): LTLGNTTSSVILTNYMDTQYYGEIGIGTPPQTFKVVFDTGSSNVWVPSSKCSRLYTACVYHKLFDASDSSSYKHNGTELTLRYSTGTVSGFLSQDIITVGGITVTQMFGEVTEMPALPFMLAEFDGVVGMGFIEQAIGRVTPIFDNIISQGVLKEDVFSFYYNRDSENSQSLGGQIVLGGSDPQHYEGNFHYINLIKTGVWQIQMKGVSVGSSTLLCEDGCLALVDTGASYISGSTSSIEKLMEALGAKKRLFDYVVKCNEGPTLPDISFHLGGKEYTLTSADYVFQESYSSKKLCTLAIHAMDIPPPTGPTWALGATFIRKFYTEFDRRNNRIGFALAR
Procedure: Inhibition of Renin in Human Plasma
Human EDTA-collected plasma is rapidly thawed in warm water and centrifuged at 2900 g for 15 minutes at 4° C. The supernatant is collected and recombinant renin (Proteos) is added at a final concentration of 1 nM. The plasma is transferred to a Costar black 384 well plate (#3573). Renin inhibitors are added from a 17.5 fold concentrated DMSO solution and pre-incubated at 37° C. for 10 minutes. The internally-quench fluorescent peptide QXL520™-[…](5-FAM) (Anaspec), SEQ ID NO: 2, is diluted in 3M Tris pH 7.2, 200 mM EDTA and added to the plasma. The final concentrations are: 6 μM substrate, 342 mM Tris, 23 mM EDTA. The plate is incubated at 37° C. for 1 hour. The plate is read in a SpectraMax Gemini EM reader set at an excitation wavelength of 490 nm and an emission wavelength of 520 nm at times 0 and 1 hour. Background fluorescence at t=0 is subtracted from the measurement at t=1 hour. Inhibitory activity of the compounds is expressed as IC50.

Human recombinant renin = biological target: T2, Human recombinant renin (Homo sapiens, UniProt P00797); test: Inhibition of human recombinant renin (QFRET, buffer); format: biochemical; conditions: buffer: 50 mM MOPS pH 7.4, 100 mM NaCl, 0.002% Tween 20; 37° C., 3 hours
T2 construct: purchased Proteos
T2 sequence (P00797 67-406): T1 sequence (P00797 67-406)
Procedure: Inhibition of Human Recombinant Renin
Human recombinant renin (Proteos) in 50 mM MOPS pH 7.4, 100 mM NaCl, 0.002% Tween 20 at a final concentration of […] is incubated with inhibitors from a 50 fold concentrated DMSO solution and 6 μM of an internally-quenched fluorescent peptide: DNP-[…]D,L-Amp (SEQ ID NO: 1); Paschalidou K. et al., Biochem J., 2004, 382, 1031). The reactions take place in a Costar 384 well black plate (#3573) at 37° C. for 3 hours. Fluorescence is measured at times 0 and 3 hours with a SpectraMax Gemini EM reader set at an excitation wavelength of 328 nm and at an emission wavelength of 388 nm. Background fluorescence at t=0 is subtracted from the measurement at t=3 hours. Inhibitory activity of the compounds is expressed as IC50.

Row | IC50 [1] [nM] | IC50 (Human recombinant renin) [nM] | Compound
1 | 3 | 1.5 | CC(=O)NCCc1ccccc1-c1nnc([C@H]2CN[C@@H](C)C[C@@H]2c2ccc(F)c(F)c2)n1C1CC1 [Structure 94]
2 | 0.65 | 0.15 | Fc1ccc([C@H]2CCNC[C@@H]2c2nnc(-c3cccc(Cl)c3Cl)n2C2CC2)cc1F [Structure 95]
3 | 2.8 | 0.7 | CC(=O)NCCc1ccccc1-c1onc([C@H]2CN[C@@H](C)C[C@@H]2c2ccc(F)c(F)c2)c1Br [Structure 96]
4 | 89 | 10 | CC(=O)NCCc1cccnc1-c1onc([C@H]2CNCC[C@]2(O)c2ccc(F)c(F)c2)c1Br [Structure 97]
5 | 2.2 | 0.58 | COCCC[C@H](CNC(C)=O)c1ccccc1-c1onc([C@H]2CNCC[C@]2(O)c2ccc(F)c(F)c2)c1Br [Structure 98]
6 | 3.9 | 1.2 | COCCC[C@@H](CNC(C)=O)c1ccccc1-c1onc([C@H]2CNCC[C@]2(O)c2ccc(F)c(F)c2)c1Br [Structure 100]
7 | 1.1 | 0.27 | COCCCc1ccc(-c2onc([C@H]3CNCC[C@]3(O)c3ccc(F)c(F)c3)c2Br)c(CCNC(C)=O)c1 [Structure 102]
8 | 1.9 | 0.7 | CC(=O)NCCc1ccccc1-c1onc([C@H]2CNCC[C@]2(O)c2ccc(F)c(F)c2)c1Cl [Structure 104]
9 | 29 | 4.9 | CC(=O)NCCc1ccccc1-c1onc([C@H]2CNCC[C@]2(O)c2ccc(C)c(F)c2)c1Br [Structure 105]
10 | 1.2 | 0.26 | CC(=O)NCCc1ccccc1-c1onc([C@H]2CNCC[C@@H]2c2ccc(F)c(F)c2)c1Br [Structure 107]
11 | 2 | 0.07 | COCCCC(CNC(C)=O)c1ccccc1-c1onc([C@H]2CNCC[C@@H]2c2ccc(OCCOc3c(Cl)cc(C)cc3Cl)cc2)c1Br (stereo partly drawn) [Structure 108]
12 | 1.2 | 0.07 | CC(=O)NCCc1ccccc1-c1onc([C@H]2CNCC[C@@H]2c2ccc(OCCOc3c(Cl)cc(C)cc3Cl)cc2)c1C(C)O (stereo partly drawn) [Structure 109]
13 | 1.2 | 0.09 | CC(=O)NCCc1ccccc1-c1onc([C@H]2CNCC[C@@H]2c2ccc(OCCOc3c(Cl)cc(C)cc3Cl)cc2)c1C(C)=O [Structure 110]
14 | 1.2 | < 0.05 | CC(=O)NCCc1ccccc1-c1onc([C@H]2CNCC[C@@H]2c2ccc(OCCOc3c(Cl)cc(C)cc3Cl)cc2)c1Br [Structure 111]
15 | 1.7 | 0.44 | CC(=O)NCCc1ccccc1-c1onc([C@H]2CNCC[C@]2(O)c2ccc(COCC(F)(F)COC(C)C)cc2)c1Br [Structure 112]
16 | 0.58 | 0.19 | CCOCC(F)(F)COCc1ccc([C@@]2(O)CCNC[C@@H]2c2noc(-c3ccccc3CCNC(C)=O)c2Br)cc1 [Structure 114]
17 | 16 | 6.5 | CC(=O)NCCc1ccccc1-c1onc([C@H]2CNCC[C@]2(O)c2ccc(COCCOC(C)C)cc2)c1Br [Structure 115]

Row | IC50 [1] [nM] | IC50 (Human recombinant renin) [nM] | Compound
18 | 1.4 | 0.37 | CC(=O)NCCc1ccccc1-c1onc([C@H]2CNCC[C@]2(OCC(O)CO)c2ccc(F)c(F)c2)c1Br (stereo partly drawn) [Structure 117]
19 | 0.55 | 0.22 | CC(=O)NCCc1ccccc1-c1onc([C@H]2CNCC[C@]2(OC(N)=O)c2ccc(F)c(F)c2)c1Br [Structure 118]
20 | 3.6 | 0.15 | COC[C@H](C)COCc1ccc([C@@]2(O)CCNC[C@@H]2c2cnc(-c3ccccc3CCNC(C)=O)cc2C)cc1 [Structure 119]
21 | 1.2 | 0.66 | COCC(F)(F)COCc1ccc([C@@]2(O)CCNC[C@@H]2c2ccc(-c3ccccc3CCNC(C)=O)cc2C)cn1 [Structure 120]
22 | 0.32 | 0.08 | COCC(F)(F)COCc1ccc([C@@]2(O)CCNC[C@@H]2c2ccc(-c3ccccc3CCNC(C)=O)cc2C)cc1 [Structure 121]
23 | 0.43 | 0.09 | CCOCC(F)(F)COCc1ccc([C@@]2(O)CCNC[C@@H]2c2ccc(-c3ccccc3CCNC(C)=O)cc2C)cc1 [Structure 122]
24 | 5.6 | 1.2 | COCC(F)(F)COCc1ccc([C@@]2(O)CCNC[C@@H]2c2ccc(-c3ccccc3CCNC(C)=O)cc2C)nc1 [Structure 123]
25 | 3.6 | 0.63 | COC[C@H](C)COCc1ccc([C@@]2(O)CCNC[C@@H]2c2ccc(-c3ccccc3CCNC(N)=O)cc2C)cc1 [Structure 124]
26 | 76 | 4.6 | COC[C@H](C)COCc1ccc([C@@]2(O)CCNC[C@@H]2c2ccc(-c3ccccc3CCN3CCOC3=O)cc2C)cc1 [Structure 125]
27 | 0.52 | 0.08 | COC[C@H](C)COCc1ccc([C@@]2(O)CCNC[C@@H]2c2ccc(-c3ccccc3CCNC(C)=O)cc2Cl)cc1 [Structure 126]
28 | 1.3 | 0.03 | COC[C@H](C)COCc1ccc([C@@]2(O)CCNC[C@@H]2c2ccc(-c3ccccc3CCNC(=O)OC)cc2C)cc1 [Structure 127]
29 | 0.57 | 0.07 | COC[C@H](C)COCc1ccc([C@@]2(O)CCNC[C@@H]2c2ccc(-c3ccccc3CCNC(=O)CO)cc2C)cc1 [Structure 128]
30 | 0.44 | 0.05 | COC[C@H](C)COCc1ccc([C@@]2(O)CCNC[C@@H]2c2ccc(-c3ccccc3CCNC(C)=O)cc2C)cc1 [Structure 129]
31 | 3.8 | 0.075 | COC[C@H](C)COCc1ccc([C@@]2(O)CCNC[C@@H]2c2ccc(-c3ccccc3CCNC(C)=O)cc2C)nc1 [Structure 130]
32 | 18 | 1.2 | COC[C@H](C)COc1ccc([C@@]2(O)CCNC[C@@H]2c2ccc(-c3ccccc3CCNC(C)=O)cc2C)cc1 [Structure 131]
33 | 18 | 0.4 | CC(=O)NCCc1ccccc1-c1ccc([C@H]2CNCC[C@]2(O)c2ccc(OC(F)(F)F)c(F)c2)c(C)c1 [Structure 132]
